Test [1] can be described thus: Compound was evaluated for its inhibitory activity against UV4 cell in the presence of drug alone. It is filed as functional, cell-based, Cricetulus griseus.
Test [2] can be described thus: Compound was evaluated for its inhibitory activity against UV4 cell in the presence of drug and NADH. Format: functional, cell-based, Cricetulus griseus.
The nature of test [3]: Ratio of IC50 (drug alone)/IC50(drug+NADH+enzyme). Format: functional.
A short description of test [4]: Compound was evaluated for its inhibitory activity against UV4 cell in the presence of drug along with NADH and enzyme(Escherichia coli B nitroreductase). It is filed as functional, cell-based, Cricetulus griseus.

We go through 3 molecules from ChEMBL document CHEMBL1128929, “A novel nitro-substituted seco-CI: Application as a reductively activated adept prodrug” (Bioorg Med Chem Lett, 1996).

Take `COc1cc2cc(C(=O)N3CC(CCl)c4ccc(NC(=O)OCc5ccc([N+](=O)[O-])cc5)cc43)[nH]c2c(OC)c1OC` (configuration not stated): the IC50 (in general, the concentration needed to halve the response being measured) in test [1] came to 15000 nM; in test [2] it was 11300 nM; in test [4] it was 598 nM. Also, in test [3], the Ratio amounted to 0.9.
As to `COc1cc2cc(C(=O)N3CC(CCl)c4ccc(N)cc43)[nH]c2c(OC)c1OC` (configuration not stated), the IC50 in test [1] is 23.6 nM; in test [2], 26.6 nM; in test [4], 27.8 nM. In test [3], the Ratio is 23.2.
The like results for `COc1cc2cc(C(=O)N3CC(CCl)c4ccc([N+](=O)[O-])cc43)[nH]c2c(OC)c1OC` (configuration not stated) were, in that order, 2310 nM, 237 nM, 6.4 nM and 402.
